Paper PMC6416395, “B1.12: a novel peptide interacting with the extracellular loop of the EBV oncoprotein LMP1” (Scientific Reports, 2019)
“Also recorded” adds a separate entry of the source. Residues, ends and D or L forms follow the SMILES beside them.

How the values were obtained:
[1] = system: B1 peptide (first extracellular loop of LMP1); test: ITC of B1/B1.12 interaction; assay type: binding, Epstein-Barr virus (EBV); conditions: 30 °C, NaHCO3 buffer 0.1 M pH 5.7
Description: For ITC, analysis was performed at 30 °C using an isothermal titration calorimeter (VP-ITC, LLC Microcal Inc., Northampton, MA, USA). Peptides were suspended in NaHCO3 buffer (0.1 M, pH 5.7, after 2 hours of sample equilibration) and the reference cell was filled with the same buffer. B1 peptide (0.2 mM) was placed into 250 μL syringe and 1200 μL of B1.12 peptide (0.01 mM) was placed in the titration cell. The peptide solution was injected into the stirred sample cell containing B1.12 peptide in >20 injections (2 μL per injection) by a computer-controlled pump. The injection lasted 10 seconds with an interval of 120 seconds between successive injections. Heat released with each injection was measured (Differential Potential in µCal/sec) by the calorimeter in dynamic correction mode. Control experiments were performed by tittering the B1 peptide into the buffer solution at the same pH and concentrations with and without the B1 peptide, in order to discriminate the interaction process against the dilution of B1 and its possible self-association, respectively.

B1 peptide = test: Competitive inhibition of phage B1.12 binding to B1 peptide; parameters: species or system Epstein-Barr virus (EBV); conditions: B1.12 phage 2 × 10^10 pfu, room temperature 1 hour
Description: Binding of the B1.12 peptide to its target B1 and to HeLa/LMP1 cells was evaluated by a competitive binding assay. […] Then the B1.12 phage (2 × 10^10 pfu) was added to each well and incubated for 1 hour. After washing, the bound phage was detected by the anti-M13 antibody as described previously. For the competition test on HeLa cells expressing or not the viral oncoprotein LMP1, cells were seeded into 96-well plates (10^4 cells/well), washed twice in PBS, and fixed with 4% paraformaldehyde for 30 minutes at room temperature. Synthetic peptides at concentrations of 50, 75, 100 and 200 µM were incubated with the cells at 37 °C for 1 hour and the experiment was carried out as described above. All experiments were done in triplicate and the mean values of OD were used to calculate the rate of competitive inhibition according to the following formula: inhibition ratio = (OD control − OD phage)/OD control × 100, where OD control and OD phage represent the OD450 nm values of phage binding on cells incubated with PBS and with the peptide, respectively.

HeLa/LMP1 cells = test: Competitive inhibition of phage B1.12 binding to HeLa/LMP1 cells; assay type: cell-based; conditions: peptide 100 µM, 37 °C 1 hour, triplicate mean
Description: Binding of the B1.12 peptide to its target B1 and to HeLa/LMP1 cells was evaluated by a competitive binding assay. For competition on B1 as a target, the B1.12 peptide or the unrelated control peptide were incubated at concentrations of 1, 5, 10, 25, 50 and 100 µM with B1 peptide (100 µl of a solution of 1 mg/mL in NaHCO3) at room temperature for 1 hour. Then the B1.12 phage (2 × 10^10 pfu) was added to each well and incubated for 1 hour. After washing, the bound phage was detected by the anti-M13 antibody as described previously. For the competition test on HeLa cells expressing or not the viral oncoprotein LMP1, cells were seeded into 96-well plates (10^4 cells/well), washed twice in PBS, and fixed with 4% paraformaldehyde for 30 minutes at room temperature. Synthetic peptides at concentrations of 50, 75, 100 and 200 µM were incubated with the cells at 37 °C for 1 hour and the experiment was carried out as described above. All experiments were done in triplicate and the mean values of OD were used to calculate the rate of competitive inhibition according to the following formula: inhibition ratio = (OD control − OD phage)/OD control × 100, where OD control and OD phage represent the OD450 nm values of phage binding on cells incubated with PBS and with the peptide, respectively.

C666.1 cells = test: MTT cell viability, C666.1; assay type: cell-based; conditions: increasing concentration to 200 µM, 48 h
Description: Three cell lines were used: C666-1 which is a native EBV-infected NPC-derived cell line constitutively expressing LMP1, HeLa cells transfected with native vector (Gpt) or harboring the cDNA encoding LMP1, and HT-29 which is a human colon cancer cell line All cells were maintained in RPMI medium 1640 supplemented with 5% (V/V) FBS (Gibco), 4 µg/mL Gentamycine and 2 mM L-glutamine at 37 °C in a humidified atmosphere of 5% CO2. These cell lines were kindly provided by Pr P. Busson (IGR-France).
Cells were plated into 96-well plates until 80% confluent and then treated with different concentrations of B1.12 peptide (100, 200, 300 and 400 µM). After 48 hours of incubation, 20 μL MTT (5 mg/mL) were added to each well. After 4 hours, 100 μL dimethyl sulfoxide (DMSO) was added to each well, and absorbance was measured at […] using a Varioskan™ Flash Multimode Reader (Thermofisher Scientific). The percentage of cell viability was calculated using this formula:(OD590 nm of treated cells/OD590 nm of untreated cells) × 100.

pAkt = test: Western blot pAkt in C666.1 cells; assay type: cell-based; conditions: 100 µM peptide, 24 hours, C666.1, Western blot, n = 4 biological replicates
Description: (§1) Cells were cultured at 80% confluency and then incubated with 100 µM B1.12 peptide for 24 hours. Subsequently, cells were washed twice with cold PBS and scrapped in ice-cold RIPA buffer (50 mM Tris pH 7.4, 5 mM EDTA pH 8.0, 150 mM NaCl, 0.1% SDS, 0.5% NaDOC, 0.5% NP 40) supplemented with 5 mM PMSF. After 30 minutes on ice, cells were sonicated, and cell debris were removed by centrifugation at 15,000 rpm at 4 °C for 15 minutes. Proteins were quantified using the Bradford Protein Assay (Bio-Rad) according to the manufacturer’s specifications. Thirty μg of total proteins were separated on 10% SDS–PAGE and transferred to PVDF membrane (Amersham Hybond-P). The membranes were blocked at 4 °C overnight with PBS 0.1% Tween 20 containing 5 mg/mL skimmed milk, prior to be incubated with pAkt (Biotechne, diluted 1/2500) pRelA536 (Biotechne, diluted 1/1000), and Tubulin (Thermofisher, diluted 1/1000) antibodies for 2 hours at room temperature, followed by incubation with anti-rabbit or anti-mouse conjugated to horseradish peroxidase at room temperature for 1 hour. The target protein band was visualized using the enhanced chemiluminescence detection system (Amersham ECL Prime Western Blotting Detection Reagent) and luminescent bands were visualized using the VERSADOC imaging system. Band densities were assessed by Image-J software.

pNFκb (pRelA536) = test: Western blot pNFκb (pRelA536) in C666.1 cells; assay type: cell-based; conditions: 100 µM peptide, 24 hours, C666.1, Western blot, n = 4 biological replicates
Description: as §1

Structure (SMILES): CC(C)C[C@H](NC(=O)[C@H](CC(=O)O)NC(=O)[C@H](CC(C)C)NC(=O)[C@@H]1CCCN1C(=O)[C@H](CS)NC(=O)[C@H](C)N)C(=O)N[C@@H](CCCNC(=N)N)C(=O)N[C@@H](CO)C(=O)N1CCC[C@H]1C(=O)N[C@@H](CS)C(=O)NCC(N)=O [B1.12] (H-ACPLDLRSPCG-NH2; N-terminus and C-terminus assumed)
- number of injections after which exothermic binding reaction ceases ([1]; 2 μL injections of B1 0.2 mM into B1.12 0.01 mM): nineteen
- binding to target B1 (ITC) ([1]; B1 0.2 mM injected into B1.12 0.01 mM): ITC profile confirmed the binding of the B1.12 peptide to its target B1 peptide
- effect on binding of phage B1.12 to target B1 (B1 peptide; increasing peptide concentration, triplicate): the inhibition ratio increased gradually
- inhibition ratio (B1 peptide; peptide 400 µM, triplicate mean): approximately 43%
- inhibition ratio (HeLa/LMP1 cells): 45%
- cell viability (in words) (C666.1 cells): gradually decreases with increasing peptide concentration
- pAkt expression (pAkt): low in B1.12-treated-C666.1 compared to those in the untreated or treated with control peptide; also recorded: decreased in B1.12-treated-C666.1 compared to those in the untreated or treated with control peptide more markedly for pAkt
- pNFκb (pRelA536) expression (pNFκb (pRelA536)): a weak change; also recorded: decreased in B1.12-treated-C666.1 compared to those in the untreated or treated with control peptide
